Measurements reported in PMC7284870, “Antimicrobial Peptides from Rat-Tailed Maggots of the Drone Fly Eristalis tenax Show Potent Activity against Multidrug-Resistant Gram-Negative Bacteria” (Microorganisms, 2020).
Values after ≈ are worked out from the molar mass of the structure shown. Read-outs that look alike come from different tables or passages of the source. Residues, ends and D or L forms follow the SMILES beside them.

Tests used:
E. coli ATCC 25922 = test system: E. coli ATCC 25922
Method: (§1) The strains that were used in this study (Table 2 and Table S1) were cultivated at 37 °C in cation-adjusted Mueller–Hinton broth (CAMB) in Erlenmeyer flasks, or on the same medium with agar in Petri dishes. Exceptionally, Mycobacterium smegmatis was cultivated at 37 °C in brain heart infusion (BHI) medium that was supplemented with 1% Tween-80 in Erlenmeyer flasks, or on the same medium lacking detergent but with agar in Petri dishes. Strains listed with Robert Koch Institute (RKI) strain numbers are clinical isolates from the RKI strain collection originating from hospitalized patients in Germany. The remaining strains originated from the Sanofi strain collection and they were originally purchased from the American Type Culture Collection or the German Collection of Microorganisms and Cell Cultures. Meropenem/colistin-resistant strains were maintained, as described above, with the appropriate antibiotic added at levels below the minimal inhibitory concentration (MIC).
The MIC values were determined in 384-well microtiter plates with an assay volume of 20 µL. Immediately before each assay, the cultures of test organisms (bacteria grown for 18 h, Candida albicans and M. smegmatis grown for 48 h) were diluted with the appropriate medium to a density of 1 × 10^6 cells/mL (C. albicans), 1 × 10^5 cells/mL (M. smegmatis) or 5 × 10^5 cells per mL (other species). The peptides were dissolved in sterile water at a concentration of 10.24 mg/mL and a 1:2 dilution series was prepared in a 384-well microtiter plate to achieve the concentration range 10,240–0.3125 µg/mL in a volume of 50 µL. We transferred 2-µL aliquots from this dilution series to new 384-well microtiter plates while using a CyBio-Well 384-channel automated pipettor (Analytic Jena, Jena, Germany) and added 18 µL of the diluted suspension of each test species using a Viafill reagent dispenser (Integra), thus reducing the final peptide concentration 10-fold to the range 1024–0.03125 µg/mL. The cells were incubated at 37 °C and 85% relative humidity, shaking at 180 rpm for 48 h (M. smegmatis), 24 h (C. albicans) or 18 h (other species). The growth of M. smegmatis was measured using the BacTiter-Glo luminescence test system (Promega, Madison, WI, USA). The growth of the other species was determined by visual inspection of the microtiter plate and turbidimetry based on the optical density at 600 nm (OD600). […] We supplemented the test medium with either 150 mM NaCl or 1.25 mM CaCl2 to represent monovalent and divalent cations to simulate physiological conditions.

Canida albicans FH2173 = type: cell-based, Candida albicans; conditions: CAMB, 24 h, 37 °C, n = 4
Method: as §1
(§2) The MIC values were determined in 384-well microtiter plates with an assay volume of 20 µL. Immediately before each assay, the cultures of test organisms (bacteria grown for 18 h, Candida albicans and M. smegmatis grown for 48 h) were diluted with the appropriate medium to a density of 1 × 10^6 cells/mL (C. albicans), 1 × 10^5 cells/mL (M. smegmatis) or 5 × 10^5 cells per mL (other species). […] We transferred 2-µL aliquots from this dilution series to new 384-well microtiter plates while using a CyBio-Well 384-channel automated pipettor (Analytic Jena, Jena, Germany) and added 18 µL of the diluted suspension of each test species using a Viafill reagent dispenser (Integra), thus reducing the final peptide concentration 10-fold to the range 1024–0.03125 µg/mL. […] The growth of M. smegmatis was measured using the BacTiter-Glo luminescence test system (Promega, Madison, WI, USA). The growth of the other species was determined by visual inspection of the microtiter plate and turbidimetry based on the optical density at 600 nm (OD600). The MIC was defined as the peptide concentration at which no bacterial growth was observed. We supplemented the test medium with either 150 mM NaCl or 1.25 mM CaCl2 to represent monovalent and divalent cations to simulate physiological conditions.

S. aureus ATCC 33592 = type: cell-based, Staphylococcus aureus; conditions: CAMB, 18 h, 37 °C, n = 4
Method: as §1, §2

[1] = test system: Micrococus luteus DSM 20030; type: cell-based, Micrococcus luteus; conditions: CAMB, 18 h, 37 °C, n = 4
Method: as §1
The MIC values were determined in 384-well microtiter plates with an assay volume of 20 µL. […] The growth of M. smegmatis was measured using the BacTiter-Glo luminescence test system (Promega, Madison, WI, USA). The growth of the other species was determined by visual inspection of the microtiter plate and turbidimetry based on the optical density at 600 nm (OD600). […]

[2] = test system: Enterococcus faecium DSM 17050; type: cell-based; conditions: CAMB, 18 h, 37 °C, n = 4
Method: as §1, §2

[3] = test system: Klebsiella pneumoniae DSM 30104; type: cell-based; conditions: CAMB, 18 h, 37 °C, n = 4
Method: as §1, §2

[4] = test system: Pseudomonas aeruginosa ATCC 27853; type: cell-based; conditions: CAMB, 18 h, 37 °C, n = 4
Method: as §1, §2

[5] = test system: Staphylococcus aureus ATCC 25923; type: cell-based; conditions: CAMB, 18 h, 37 °C, n = 4
Method: as §1, §2

[6] = test system: Acinetobacter baumannii ATCC 19606; type: cell-based; conditions: CAMB, 18 h, 37 °C, n = 4
Method: as §1, §2

[7] = test system: Proteus mirabilis DSM 4479; type: cell-based; conditions: CAMB, 18 h, 37 °C, n = 4
Method: as §1, §2

[8] = test system: Listeria monocytogenes DSM 20600; type: cell-based; conditions: CAMB, 18 h, 37 °C, n = 4
Method: as §1, §2

[9] = test system: Staphylococcus epidermidis ATCC 35984; type: cell-based; conditions: CAMB, 18 h, 37 °C, n = 4
Method: as §1, §2

[10] = test system: Mycobacterium smegmatis ATCC 607; type: cell-based; conditions: BHI, 48 h, 37 °C, BacTiter-Glo, n = 4
Method: as §1, §2

With `CC(C)C[C@@H]1NC(=O)[C@@H]2CSSC[C@@H](C(=O)N[C@@H](CCCNC(=N)N)C(=O)N[C@@H](CCCCN)C(=O)O)NC(=O)[C@H](CC(N)=O)NC(=O)[C@@H]3CSSC[C@H](NC(=O)[C@H](C)NC(=O)[C@H](C)NC(=O)[C@H](CC(=O)O)NC(=O)[C@H](CCCCN)NC(=O)[C@H](C(C)C)NC(=O)[C@H](CC(N)=O)NC(=O)[C@H](CC(C)C)NC(=O)[C@H](Cc4ccccc4)NC(=O)[C@H](CO)NC(=O)[C@H](CC(C)C)NC(=O)[C@H](CC(C)C)NC(=O)[C@H](CC(=O)O)NC(=O)[C@@H](NC(=O)[C@@H](NC(=O)[C@H](C)N)[C@@H](C)O)CSSC[C@H](NC(=O)[C@H](Cc4ccc(O)cc4)NC(=O)CNC(=O)CNC(=O)[C@H](CCCNC(=N)N)NC(=O)[C@H](Cc4ccc(O)cc4)NC(=O)CNC(=O)[C@H](CCCCN)NC(=O)[C@H](C)NC1=O)C(=O)N[C@@H](CC(=O)O)C(=O)NCC(=O)N[C@@H](CCCNC(=N)N)C(=O)N[C@@H](CCCCN)C(=O)N[C@@H](C(C)C)C(=O)N3)C(=O)N[C@@H](C)C(=O)N[C@@H](C)C(=O)N[C@@H](Cc1c[nH]cn1)C(=O)N2` [EtDef4] (HELM PEPTIDE1{A.T.C.D.L.L.S.F.L.N.V.K.D.A.A.C.A.A.H.C.L.A.K.G.Y.R.G.G.Y.C.D.G.R.K.V.C.N.C.R.K}$PEPTIDE1,PEPTIDE1,3:R3-30:R3|PEPTIDE1,PEPTIDE1,16:R3-36:R3|PEPTIDE1,PEPTIDE1,20:R3-38:R3$$$V2.0) the MIC (E. coli ATCC 25922; CAMB + A000160918 [4 µg/mL]) was 32 µg/mL, the MIC (E. coli ATCC 25922; CAMB + A000161246 [4 µg/mL]) was 128 µg/mL and the MIC (E. coli ATCC 25922; CAMB + A000173031A [4 µg/mL]) was 16 µg/mL. It also gave an MIC (E. coli ATCC 25922; CAMB + A000173033A [4 µg/mL]) of 256 µg/mL, an MIC (E. coli ATCC 25922; CAMB + A000173039A [0.25 µg/mL]) of 64 µg/mL and an MIC (E. coli ATCC 25922; CAMB + A000173380A [4 µg/mL]) of 256 µg/mL. For the same compound, the MIC (E. coli ATCC 25922; CAMB + A000498432A [4 µg/mL]) was greater than 256 µg/mL, the MIC (E. coli ATCC 25922; CAMB + A000499933A [0.0625 µg/mL]) was greater than 256 µg/mL and the MIC (E. coli ATCC 25922; CAMB + A000500059A [0.0625 µg/mL]) was greater than 256 µg/mL. For the same compound, the MIC (E. coli ATCC 25922; CAMB + A000500146A [0.0625 µg/mL]) was 4 µg/mL, the MIC (E. coli ATCC 25922; CAMB + A000501181A [4 µg/mL]) was greater than 256 µg/mL and the MIC (E. coli ATCC 25922; CAMB + Colistin E1 [0.016 µg/mL]) was 8 µg/mL. The MIC (E. coli ATCC 25922; CAMB + Colistin E2 [0.016 µg/mL]) was 2 µg/mL, the MIC (E. coli ATCC 25922; CAMB + PMB [0.016 µg/mL]) was 2 µg/mL and the MIC (E. coli ATCC 25922; CAMB + PMBN [4 µg/mL]) was greater than 256 µg/mL. It also gave an MIC (E. coli ATCC 25922; CAMB, 18 h, 37 °C, n = 4) greater than 128 µg/mL, an MIC (E. coli ATCC 25922; Table 6, CAMB) greater than 256 µg/mL and an MIC (Canida albicans FH2173) greater than 128 µg/mL. The MIC (S. aureus ATCC 33592) was 16 µg/mL (≈ 3.73 µM), the MIC [1] was 16 µg/mL (≈ 3.73 µM) and the MIC [2] was greater than 128 µg/mL. For the same compound, the MIC [3] was greater than 128 µg/mL, the MIC [4] was greater than 128 µg/mL and the MIC [5] was 16 µg/mL (≈ 3.73 µM). For the same compound, the MIC [6] was greater than 128 µg/mL, the MIC [7] was greater than 128 µg/mL and the MIC [8] was 16 µg/mL (≈ 3.73 µM). It also gave an MIC [9] greater than 128 µg/mL and an MIC [10] of 32 µg/mL (≈ 7.46 µM).
